Measured values from the NIST ThermoML archive (doi:10.1016/j.jct.2006.05.012).

Assays:
[1] = xn = mol fraction of the nth substance listed; details: 298.15 K, 101 kPa, Liquid
[2] = 298.15 K; 101 kPa; Liquid

C=CC(=O)OCCCC [butyl 2-propenoate] + Cc1ccccc1
[1]
Details | mass density [kg/m3]
x2 = 0 | 893.955
x2 = 0.0255 | 893.406
x2 = 0.0508 | 892.895
x2 = 0.0999 | 891.775
x2 = 0.1509 | 890.523
x2 = 0.2006 | 889.277
x2 = 0.2506 | 887.998
x2 = 0.2996 | 886.7
x2 = 0.3597 | 885.033
x2 = 0.4006 | 883.858
x2 = 0.4504 | 882.402
x2 = 0.5015 | 880.847
x2 = 0.55 | 879.307
x2 = 0.6006 | 877.659
x2 = 0.6502 | 875.977
x2 = 0.7003 | 874.219
x2 = 0.7501 | 872.408
x2 = 0.8 | 870.53
x2 = 0.8499 | 868.551
x2 = 0.9001 | 866.487
x2 = 0.95 | 864.338
x2 = 0.9751 | 863.216

C=C(C)C(=O)OC [methyl methacrylate]
Details | mass density [kg/m3]
[2] | 937.65

C=C(C)C(=O)OC [methyl methacrylate] + Cc1ccccc1
[1]
Details | mass density [kg/m3]
x2 = 0 | 937.646
x2 = 0.0249 | 935.719
x2 = 0.0501 | 933.759
x2 = 0.1005 | 929.859
x2 = 0.15 | 926.06
x2 = 0.1994 | 922.3
x2 = 0.2497 | 918.45
x2 = 0.3001 | 914.63
x2 = 0.35 | 910.852
x2 = 0.3998 | 907.089
x2 = 0.4501 | 903.299
x2 = 0.5 | 899.556
x2 = 0.5501 | 895.803
x2 = 0.5979 | 892.219
x2 = 0.6486 | 888.421
x2 = 0.6998 | 884.596
x2 = 0.7499 | 880.84
x2 = 0.794 | 877.532
x2 = 0.8481 | 873.485
x2 = 0.9 | 869.606
x2 = 0.95 | 865.864
x2 = 0.9731 | 864.133

C=CC(=O)OCCCC [butyl 2-propenoate] + C=C(C)C(=O)OC
[1]
Details | mass density [kg/m3]
x1 = 0.025 | 936.15
x1 = 0.0501 | 934.64
x1 = 0.1001 | 931.77
x1 = 0.1502 | 929.01
x1 = 0.2 | 926.33
x1 = 0.25 | 923.76
x1 = 0.2946 | 921.53
x1 = 0.3498 | 918.85
x1 = 0.3992 | 916.57
x1 = 0.45 | 914.28
x1 = 0.4999 | 912.12
x1 = 0.5499 | 910.04
x1 = 0.5999 | 908.01
x1 = 0.644 | 906.27
x1 = 0.6991 | 904.19
x1 = 0.7499 | 902.33
x1 = 0.8002 | 900.52
x1 = 0.8504 | 898.81
x1 = 0.8994 | 897.15
x1 = 0.9499 | 895.53
x1 = 0.9749 | 894.72
x1 = 1 | 893.96

Cc1ccccc1 [toluene]
Details | mass density [kg/m3]
[2] | 862.11

Cc1ccccc1 [toluene] + C=CC(=O)OCCCC
Details | mass density [kg/m3]
[1], x1 = 1 | 862.11

Cc1ccccc1 [toluene] + C=C(C)C(=O)OC
Details | mass density [kg/m3]
[1], x1 = 1 | 862.11

C=C(C)C(=O)OC [methyl methacrylate] + C=CC(=O)OCCCC
Details | mass density [kg/m3]
[1], x2 = 0 | 937.65

C=CC(=O)OCCCC [butyl 2-propenoate]
Details | mass density [kg/m3]
[2] | 893.96
